Reference: ChEMBL document CHEMBL1165917, “Synthesis and NMDA receptor affinity of fluorinated dioxadrol analogues” (Bioorg Med Chem, 2010)

How the values were obtained:
[1] = Displacement of [3H]-(+)-MK801 from PCP binding site of NMDA receptor from pig brain cortex after 150 mins by scintillation counting; parameters: species or system Sus scrofa
[2] = target: Sigma non-opioid intracellular receptor 1 (Cavia porcellus) (UniProt Q60492); conditions: at 1 µM
Description: Displacement of [3H](+)-pentazocine from sigma1 opioid receptor from guinea pig brain cortex at 1 uM after 150 mins by scintillation counting

Sus scrofa = species on record: Sus scrofa; conditions: at 1 µM
Description: Displacement of [3H]-(+)-MK801 from PCP binding site of NMDA receptor from pig brain cortex at 1 uM after 150 mins by scintillation counting

Rattus norvegicus = species on record: Rattus norvegicus; conditions: at 1 µM
[3] = target: Sigma non-opioid intracellular receptor 1 (Cavia porcellus, UniProt Q60492); experiment: Displacement of [3H](+)-pentazocine from sigma1 opioid receptor from guinea pig brain cortex after 150 mins by scintillation counting
[4] = Displacement of [3H]ditolylguanidine from sigma2 opioid receptor from rat brain cortex after 150 mins by scintillation counting

Chain of Sigma non-opioid intracellular receptor 1 (Cavia porcellus) (Q60492 whole entry): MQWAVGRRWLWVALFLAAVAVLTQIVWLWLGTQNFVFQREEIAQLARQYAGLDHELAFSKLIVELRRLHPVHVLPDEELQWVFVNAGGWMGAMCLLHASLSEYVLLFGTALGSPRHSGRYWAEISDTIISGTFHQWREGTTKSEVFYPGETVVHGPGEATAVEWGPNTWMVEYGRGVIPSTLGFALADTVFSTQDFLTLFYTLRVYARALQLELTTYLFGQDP
Chain of Sigma non-opioid intracellular receptor 1 (Q60492 whole entry): as above

Row | SMILES | Ki [1] [nM] | inhibition [2] [%] | inhibition (Sus scrofa) [%] | inhibition (Rattus norvegicus) [%] | Ki [3] [nM] | Ki [4] [nM]
1 | O=C1CCNC(C2COC(c3ccccc3)(c3ccccc3)O2)C1 (racemic) | 470 | 0 |  |  |  | 
2 | FC1CCNC(C2COC(c3ccccc3)(c3ccccc3)O2)C1 (racemic; form 1) |  | 5 | 0 | 19 |  | 
3 | OC1CCNC(C2COC(c3ccccc3)(c3ccccc3)O2)C1 (racemic) | 44 |  |  | 13 | 971 | 
4 | FC1CCNC(C2COC(c3ccccc3)(c3ccccc3)O2)C1 (racemic; form 2) [listing 1 of 2 here] |  | 5 |  | 19 |  | 
5 | FC1(F)CCNC(C2COC(c3ccccc3)(c3ccccc3)O2)C1 (racemic) | 81 | 0 | 58 | 17 | 810 | 137
6 | CC12CC3CC(C)(C1)CC(N)(C3)C2 [MEMANTINE] | 1200 |  |  |  |  | 
7 | FC1CCNC(C2COC(c3ccccc3)(c3ccccc3)O2)C1 (racemic; form 2) [listing 2 of 2 here] | 27 |  |  |  |  | 
